Measurements taken from ChEMBL document CHEMBL1135089, “Nonpeptide alpha(v)beta(3) antagonists. Part 2: constrained glycyl amides derived from the RGD tripeptide” (Bioorg Med Chem Lett, 2002).

Columns and labels:
Integrin alpha-V/beta-3 = Integrin alpha-V/beta-3 (Homo sapiens, UniProt P05106+P06756); experiment: Displacement of a non-peptide radioligand from human recombinant alphaV-beta3 integrin; format: protein-complex assay
Mus musculus = organism: Mus musculus; experiment: The ability of compound to inhibit the transformation of osteoblast-like cells originally derived from mouse calvaria, into osteoclasts by OCFORM assay; format: functional, cell-based

Integrin alpha-V/beta-3, sequence (P05106 27-788 limits assumed): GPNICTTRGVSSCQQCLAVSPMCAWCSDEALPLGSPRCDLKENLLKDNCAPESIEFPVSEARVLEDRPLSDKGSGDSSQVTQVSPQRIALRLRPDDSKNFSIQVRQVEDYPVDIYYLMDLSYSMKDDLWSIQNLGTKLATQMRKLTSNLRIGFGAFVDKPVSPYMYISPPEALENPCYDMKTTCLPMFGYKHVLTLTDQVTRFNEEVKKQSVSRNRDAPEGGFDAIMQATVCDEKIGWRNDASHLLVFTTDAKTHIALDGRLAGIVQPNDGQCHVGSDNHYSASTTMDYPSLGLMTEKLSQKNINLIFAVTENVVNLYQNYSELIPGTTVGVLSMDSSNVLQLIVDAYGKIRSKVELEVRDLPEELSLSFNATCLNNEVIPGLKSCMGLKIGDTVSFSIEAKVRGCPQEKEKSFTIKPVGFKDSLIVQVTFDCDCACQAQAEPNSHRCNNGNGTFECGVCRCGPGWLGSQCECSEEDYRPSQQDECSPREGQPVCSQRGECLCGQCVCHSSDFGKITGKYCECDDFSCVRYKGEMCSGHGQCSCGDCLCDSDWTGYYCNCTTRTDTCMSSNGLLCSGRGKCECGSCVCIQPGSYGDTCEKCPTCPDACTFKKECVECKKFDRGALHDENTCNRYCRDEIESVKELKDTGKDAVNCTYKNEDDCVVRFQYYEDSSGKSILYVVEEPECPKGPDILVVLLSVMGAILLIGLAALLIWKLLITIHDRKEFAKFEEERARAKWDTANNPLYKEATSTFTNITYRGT
Integrin alpha-V/beta-3, sequence (P06756 31-889 limits assumed): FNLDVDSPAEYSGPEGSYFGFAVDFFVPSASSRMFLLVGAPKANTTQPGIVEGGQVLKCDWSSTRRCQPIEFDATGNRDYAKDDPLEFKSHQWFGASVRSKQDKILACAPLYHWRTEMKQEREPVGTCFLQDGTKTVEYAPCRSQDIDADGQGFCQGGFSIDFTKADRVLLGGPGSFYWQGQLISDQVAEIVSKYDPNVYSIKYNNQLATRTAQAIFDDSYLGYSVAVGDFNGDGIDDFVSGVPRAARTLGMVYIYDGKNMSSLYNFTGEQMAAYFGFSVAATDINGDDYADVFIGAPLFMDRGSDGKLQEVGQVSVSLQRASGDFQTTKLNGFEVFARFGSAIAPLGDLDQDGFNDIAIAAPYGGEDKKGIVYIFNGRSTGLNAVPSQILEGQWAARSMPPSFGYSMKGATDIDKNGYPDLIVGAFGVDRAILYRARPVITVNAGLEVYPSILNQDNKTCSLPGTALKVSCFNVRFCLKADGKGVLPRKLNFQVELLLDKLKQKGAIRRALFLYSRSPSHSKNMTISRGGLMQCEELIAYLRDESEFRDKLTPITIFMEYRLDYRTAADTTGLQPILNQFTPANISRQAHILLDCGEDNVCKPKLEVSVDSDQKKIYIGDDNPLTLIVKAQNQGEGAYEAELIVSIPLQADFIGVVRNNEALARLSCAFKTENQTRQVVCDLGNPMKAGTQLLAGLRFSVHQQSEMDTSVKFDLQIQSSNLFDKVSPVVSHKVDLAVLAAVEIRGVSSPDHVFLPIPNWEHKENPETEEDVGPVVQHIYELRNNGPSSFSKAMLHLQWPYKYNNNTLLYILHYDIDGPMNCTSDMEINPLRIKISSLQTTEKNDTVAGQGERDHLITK
Integrin alpha-V/beta-3, sequence (P06756 891-1048 limits assumed): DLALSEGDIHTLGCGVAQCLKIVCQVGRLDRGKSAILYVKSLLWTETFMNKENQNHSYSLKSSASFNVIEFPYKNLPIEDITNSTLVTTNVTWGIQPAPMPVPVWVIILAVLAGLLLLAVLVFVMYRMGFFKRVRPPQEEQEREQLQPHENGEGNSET

Row | SMILES | IC50 (Integrin alpha-V/beta-3) | IC50 (Mus musculus)
1 | N=C(N)NCCC[C@H](N)C(=O)NCC(=O)N[C@@H](CC(=O)O)C(=O)O | > 10000 nM | 
2 | N=C(N)NCCCCC(=O)NCC(=O)NCCC(=O)O | > 10000 nM | 
3 | O=C(O)CCNC(=O)CNC(=O)CCCc1ccc2c(n1)NCCC2 | 111 nM | 
4 | C#C[C@H](CC(=O)O)NC(=O)CN1CC[C@H](CCc2ccc3c(n2)NCCC3)C1=O | 2.9 nM | 150 nM

Further lines, results first:

Row | IC50 (Integrin alpha-V/beta-3) | IC50 (Mus musculus) | SMILES
5 | 1.3 nM |  | O=C(O)C[C@H](NC(=O)CNC(=O)CCCc1ccc2c(n1)NCCC2)c1cccnc1
6 | 12 nM | > 1000 nM | O=C(O)C[C@H](NC(=O)CN1CCN(CCc2ccc3c(n2)NCCC3)C1=O)c1cccnc1
7 | 0.94 nM | 79 nM | O=C(O)C[C@H](NC(=O)CN1CC[C@@H](CCc2ccc3c(n2)NCCC3)C1=O)c1cccnc1
8 | 1.2 nM | 480 nM | O=C(O)C[C@H](NC(=O)CN1CCCC(CCc2ccc3c(n2)NCCC3)C1=O)c1cccnc1 (some centres undefined)
9 |  | 62 nM | O=C(O)C[C@H](NC(=O)CN1CC[C@H](CCc2ccc3c(n2)NCCC3)C1=O)c1cccnc1
10 | 8.8 nM |  | C#C[C@H](CC(=O)O)NC(=O)CNC(=O)CCCc1ccc2c(n1)NCCC2
